# From the supplement of paper PMC10307832
# How the values were obtained:
# Assay in all cases: relative viability (nuclei count vs DMSO), 5 days (fraction); higher = more cells survive
# Pazopanib + Palbociclib = compound: Cc1ccc(Nc2nccc(N(C)c3ccc4c(C)n(C)nc4c3)n2)cc1S(N)(=O)=O [Pazopanib] + CC(=O)c1c(C)c2cnc(Nc3ccc(N4CCNCC4)cn3)nc2n(C2CCCC2)c1=O [Palbociclib] (partner 0.5 µM)
# Procedure, shortened: (§1)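 Relative viability divides the nuclei count in treated wells by that in vehicle wells. Lung cancer cell lines were seeded in 1536-well plates, dosed by pin tool the next day, and fixed and stained after 5 days in one step with final 0.05% Triton X-100, 1% formaldehyde and 1 ug/ml Hoechst. Dosing was a single drug or a fixed anchor-drug dose plus five library-drug doses (not always all listed) in √10 steps, and values are medians of duplicate plates imaged at 4×.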
# Pazopanib + Decitabine = compound: Cc1ccc(Nc2nccc(N(C)c3ccc4c(C)n(C)nc4c3)n2)cc1S(N)(=O)=O [Pazopanib] + Nc1ncn([C@H]2C[C@H](O)[C@@H](CO)O2)c(=O)n1 [Decitabine] (partner 2 µM)
# Procedure, shortened: as §1
# Ponatinib + Crizotinib = compound: Cc1ccc(C(=O)Nc2ccc(CN3CCN(C)CC3)c(C(F)(F)F)c2)cc1C#Cc1cnc2cccnn12 [Ponatinib] + C[C@@H](Oc1cc(-c2cnn(C3CCNCC3)c2)cnc1N)c1c(Cl)ccc(F)c1Cl [Crizotinib] (partner 1 µM)
# Procedure, shortened: as §1
# Ponatinib + Linsitinib = compound: Cc1ccc(C(=O)Nc2ccc(CN3CCN(C)CC3)c(C(F)(F)F)c2)cc1C#Cc1cnc2cccnn12 [Ponatinib] + C[C@]1(O)C[C@@H](c2nc(-c3ccc4ccc(-c5ccccc5)nc4c3)c3c(N)nccn32)C1 [Linsitinib] (partner 1 µM)
# Procedure, shortened: as §1
Cell Line,relative viability (Pazopanib + Palbociclib; first compound 0.01 µM),relative viability (Pazopanib + Palbociclib; first compound 0.03162 µM),relative viability (Pazopanib + Palbociclib; first compound 0.1 µM),relative viability (Pazopanib + Palbociclib; first compound 0.3162 µM),relative viability (Pazopanib + Palbociclib; first compound 1 µM),relative viability (Pazopanib + Decitabine; first compound 0.01 µM),relative viability (Pazopanib + Decitabine; first compound 0.03162 µM),relative viability (Pazopanib + Decitabine; first compound 0.1 µM),relative viability (Pazopanib + Decitabine; first compound 0.3162 µM),relative viability (Pazopanib + Decitabine; first compound 1 µM),relative viability (Ponatinib + Crizotinib; first compound 0.002 µM),relative viability (Ponatinib + Crizotinib; first compound 0.006325 µM),relative viability (Ponatinib + Crizotinib; first compound 0.06325 µM),relative viability (Ponatinib + Crizotinib; first compound 0.2 µM),relative viability (Ponatinib + Linsitinib; first compound 0.002 µM),relative viability (Ponatinib + Linsitinib; first compound 0.006325 µM),relative viability (Ponatinib + Linsitinib; first compound 0.06325 µM),relative viability (Ponatinib + Linsitinib; first compound 0.2 µM)
NCI-H1915,0.508,0.525,0.524,0.541,0.536,0.244,0.264,0.263,0.261,0.291,0.801,0.844,0.839,0.794,1.02,1.08,1.09,0.995
NCI-H1944,0.287,0.357,0.33,0.332,0.41,0.463,0.424,0.424,0.427,0.467,1.07,1.24,1.23,1.01,1.14,1.29,1.41,1.22
NCI-H1975,0.531,0.552,0.608,0.601,0.557,0.374,0.373,0.394,0.401,0.374,0.929,1.02,1.01,0.943,0.876,0.867,0.99,1.01
NCI-H1993,,0.617,0.631,0.517,0.616,,0.493,0.607,0.678,0.59,0.796,1.01,1.01,1,0.761,0.763,0.742,0.819
NCI-H2009,0.222,0.218,0.185,0.271,0.258,0.334,0.387,0.396,0.343,0.382,1.04,0.975,1.11,1.02,1.11,1.16,1.11,1.1
NCI-H2023,0.36,0.412,0.456,0.38,0.434,0.206,0.236,0.228,0.206,0.265,0.711,0.769,0.788,0.664,0.666,0.711,0.781,0.601
NCI-H2085,0.483,0.462,0.487,0.48,0.462,0.573,0.508,0.555,0.602,0.581,0.837,0.704,0.939,0.842,0.831,0.831,1.09,0.741
NCI-H2087,0.21,0.223,0.275,0.271,0.256,0.186,0.321,0.264,0.252,0.424,0.669,0.654,0.839,0.853,0.632,0.761,0.761,0.893
NCI-H2126,0.337,0.322,0.354,0.361,0.361,0.517,0.59,0.614,0.561,0.643,0.97,1.02,1.1,1.03,0.735,0.703,0.793,0.809
NCI-H2347,0.422,0.452,0.406,0.449,0.498,0.68,0.555,0.673,0.732,0.666,0.694,0.885,0.668,0.688,0.913,0.918,1.05,0.974
NCI-H2405,0.467,0.531,0.535,0.519,0.583,0.724,0.774,0.8,0.858,0.814,0.75,0.917,0.821,0.732,0.98,0.958,0.903,0.712
NCI-H3122,0.194,0.175,0.217,0.189,0.241,0.516,0.407,0.474,0.449,0.459,0.267,0.278,0.315,0.366,0.982,1.02,1.01,1.06
PC-3 [JPC-3],,0.556,0.341,0.522,0.519,,0.885,0.773,0.916,0.787,0.925,1.04,1.11,0.989,0.981,0.984,0.992,0.956
PC-14,0.561,0.585,0.568,0.719,0.6,0.186,0.221,0.245,0.226,0.305,0.866,0.901,0.966,0.946,0.927,0.91,1.13,1.01
RERF-LC-KJ,1.11,1.03,1.07,1.09,1.04,0.66,0.681,0.739,0.631,0.699,0.816,0.766,0.928,0.834,0.842,0.907,0.914,0.827
SK-LU-1,0.393,0.389,0.411,0.425,0.455,0.568,0.611,0.633,0.632,0.665,0.804,0.948,0.963,0.777,0.943,1.19,1.18,0.997
SK-MES-1,0.334,0.352,0.322,0.36,0.304,0.338,0.359,0.369,0.416,0.55,0.978,1,1.04,0.92,0.99,1.12,1.12,1.07
SW 1573,0.468,0.349,0.454,0.367,0.365,0.465,0.52,0.607,0.528,0.7,0.707,0.876,0.887,0.608,0.838,0.775,0.777,0.819
